In publication PMC6859807 (Journal of Experimental Botany, 2019):
Residues, ends and D or L forms follow the SMILES beside them. *: point of attachment. AMC = Cc1cc(=O)oc2cc(N*)ccc12; Cbz = O=C(OCc1ccccc1)*

Target: recombinant HvPAP14 (HvPAP14:MBP) (Hordeum vulgare, UniProt B4ESF2)
Test: fluorogenic cleavage, ratio of […] nm / […] nm emission
Format: biochemical
Conditions: 20 uM substrate, pH 3.5-9; enzyme activated at pH 4.5

Chain of recombinant HvPAP14 (HvPAP14:MBP) (B4ESF2 30-367): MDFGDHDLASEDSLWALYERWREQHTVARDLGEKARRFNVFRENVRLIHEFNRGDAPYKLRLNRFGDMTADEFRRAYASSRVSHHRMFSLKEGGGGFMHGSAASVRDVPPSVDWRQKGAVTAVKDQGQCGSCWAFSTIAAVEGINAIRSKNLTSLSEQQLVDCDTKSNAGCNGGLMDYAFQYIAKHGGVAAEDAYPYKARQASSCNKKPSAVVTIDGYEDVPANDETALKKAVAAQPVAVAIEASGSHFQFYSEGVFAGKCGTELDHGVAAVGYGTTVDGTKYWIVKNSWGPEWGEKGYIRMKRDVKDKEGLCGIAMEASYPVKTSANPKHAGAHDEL

Cc1cc(=O)oc2cc(NC(=O)[C@H](CCCNC(=N)N)NC(=O)[C@H](Cc3ccccc3)NC(=O)OCc3ccccc3)ccc12 [Z-FR-AMC] (Cbz-Phe-Arg-{AMC})
fluorogenic cleavage, ratio of 440 nm / 393 nm emission: activity of the recombinant protein was therefore tested at different pH values using the fluorescent
